In patent US9604933B2, “Pyrazolochalcones as potential anticancer agents” (COUNCIL OF SCIENTIFIC AND INDUSTRIAL RESEARCH, priority 2013, dated 2017):
Where two headings read alike, the source gives them in different places.

Tests used:
IGROV1 = assay: NCI SRB cytotoxicity, ovarian IGROV1; format: cell-based; conditions: Homo sapiens, IGROV-1, 48 h exposure
Experimental: (§1) The pyrazolochalcones (7e, 8e, 10e, 11e, 12e, 13e and 8f) have been tested against fifty nine human tumor cell lines derived from nine cancer types (leukemia, non-small cell lung cancer, colon cancer, CNS cancer, melanoma, ovarian cancer, renal cancer, prostate cancer and breast cancer) as per the NCI protocol. For each compound, dose response curves for individual cell lines have been measured at a minimum of five concentrations at 10 fold dilutions. A protocol of 48 h continuous drug exposure has been used, and a sulforhodamine B (SRB) protein assay has been used to estimate cell viability or growth. The concentration for 50% cell growth inhibition (GI50), 50% cell death (LC50, 50% growth) and total cell growth inhibition (TGI, 0% growth) values were tabulated (Table-1). DMSO was used as control to calculate the values of GI50, LC50 and TGI. The compounds 7e, 8e, 10e, 11e, 12e, 13e and 8f has been evaluated for their in vitro cytotoxicity in […] cell lines from nine human cancer types of leukemia (K-562, SR), non-small cell lung (Hop-62, NCI-H226, NCI-H522), colon (HCT-116, HCT-15, HCC-2998), CNS (SF-539), melanoma (SK-MEL-5, UACC-62, M14), ovarian (IGROV1), renal (A498), prostate (PC3) and breast (BT-549, MDA-MB-435, HS578T) origin. The results are expressed as percent of cell growth determined relative to that of untreated control cells (Table 2).

MDA-MB-231/ATCC = assay: NCI SRB cytotoxicity, breast MDA-MB-231/ATCC; format: cell-based; conditions: Homo sapiens, 48 h exposure
Experimental: as §1

KM12 = assay: NCI SRB cytotoxicity, colon KM12; format: cell-based; conditions: Homo sapiens, 48 h exposure
Experimental: as §1

OVCAR-5 = assay: NCI SRB cytotoxicity, ovarian OVCAR-5; format: cell-based; conditions: Homo sapiens, 48 h exposure
Experimental: as §1

HCT-116 = assay: NCI SRB cytotoxicity, colon HCT-116; format: cell-based; conditions: Homo sapiens, 48 h exposure
Experimental: as §1

MALME-3M = assay: NCI SRB cytotoxicity, melanoma MALME-3M; format: cell-based; conditions: Homo sapiens, 48 h exposure
Experimental: as §1

SN12C = assay: NCI SRB cytotoxicity, renal SN12C; format: cell-based; conditions: Homo sapiens, 48 h exposure
Experimental: as §1

HT29 = assay: NCI SRB cytotoxicity, colon HT29; format: cell-based; conditions: Homo sapiens, HT-29, 48 h exposure
Experimental: as §1

SW-620 = assay: NCI SRB cytotoxicity, colon SW-620; format: cell-based; conditions: Homo sapiens, 48 h exposure
Experimental: as §1

M14 = assay: NCI SRB cytotoxicity, melanoma M14; format: cell-based; conditions: Homo sapiens, 48 h exposure
Experimental: as §1

HOP-62 = assay: NCI SRB cytotoxicity, non-small cell lung HOP-62; format: cell-based; conditions: Homo sapiens, 48 h exposure
Experimental: as §1

786-0 = assay: NCI SRB cytotoxicity, renal 786-0; format: cell-based; conditions: Homo sapiens, 48 h exposure
Experimental: as §1

OVCAR-3 = assay: NCI SRB cytotoxicity, ovarian OVCAR-3; format: cell-based; conditions: Homo sapiens, 48 h exposure
Experimental: as §1

HS 578T = assay: NCI SRB cytotoxicity, breast HS 578T; format: cell-based; conditions: Homo sapiens, 48 h exposure
Experimental: as §1

K-562 = assay: NCI SRB cytotoxicity, leukemia K-562; format: cell-based; conditions: Homo sapiens, K562, 48 h exposure
Experimental: as §1

NCI-H522 = assay: NCI SRB cytotoxicity, non-small cell lung NCI-H522; format: cell-based; conditions: Homo sapiens, 48 h exposure
Experimental: as §1

Renal = assay: NCI SRB cytotoxicity, renal panel average; format: cell-based, human; conditions: average of cell lines; for CC50: read-out: Log10 LC50 (concentration in mol/L causing 50% cell death) (converted)
Experimental: as §1
(§2) Each cancer type represents the average of six to eight different cancer cell lines.

NCI-H226 = assay: NCI SRB cytotoxicity, non-small cell lung NCI-H226; format: cell-based; conditions: Homo sapiens, 48 h exposure
Experimental: as §1

Prostate = assay: NCI SRB cytotoxicity, prostate panel average; format: cell-based, human; conditions: average of cell lines; for CC50: read-out: Log10 LC50 (concentration in mol/L causing 50% cell death) (converted)
Experimental: as §1, §2

MDA-MB-435 [1] = assay: NCI SRB cytotoxicity, breast panel MDA-MB-435; format: cell-based; conditions: Homo sapiens, 48 h exposure
Experimental: as §1

RPMI-8226 = assay: NCI SRB cytotoxicity, leukemia RPMI-8226; format: cell-based; conditions: Homo sapiens, 48 h exposure
Experimental: as §1

CAKI-1 = assay: NCI SRB cytotoxicity, renal CAKI-1; format: cell-based; conditions: Homo sapiens, 48 h exposure
Experimental: as §1

COLO-205 = assay: NCI SRB cytotoxicity, colon COLO-205; format: cell-based; conditions: Homo sapiens, 48 h exposure
Experimental: as §1

NCI-H23 = assay: NCI SRB cytotoxicity, non-small cell lung NCI-H23; format: cell-based; conditions: Homo sapiens, 48 h exposure
Experimental: as §1

SK-MEL-5 = assay: NCI SRB cytotoxicity, melanoma SK-MEL-5; format: cell-based; conditions: Homo sapiens, 48 h exposure
Experimental: as §1

OVCAR-8 = assay: NCI SRB cytotoxicity, ovarian OVCAR-8; format: cell-based; conditions: Homo sapiens, 48 h exposure
Experimental: as §1

BT-549 = assay: NCI SRB cytotoxicity, breast BT-549; format: cell-based; conditions: Homo sapiens, 48 h exposure
Experimental: as §1

HCT-15 = assay: NCI SRB cytotoxicity, colon HCT-15; format: cell-based; conditions: Homo sapiens, 48 h exposure
Experimental: as §1

Breast = assay: NCI SRB cytotoxicity, breast panel average; format: cell-based, human; conditions: average of cell lines; for CC50: read-out: Log10 LC50 (concentration in mol/L causing 50% cell death) (converted)
Experimental: as §1, §2

HL-60(TB) = assay: NCI SRB cytotoxicity, leukemia HL-60(TB); format: cell-based; conditions: Homo sapiens, 48 h exposure
Experimental: as §1

MDA-MB-435 [2] = assay: NCI SRB cytotoxicity, melanoma MDA-MB-435; format: cell-based; conditions: Homo sapiens, Melanoma panel MDA-MB-435, 48 h exposure
Experimental: as §1

OVCAR-4 = assay: NCI SRB cytotoxicity, ovarian OVCAR-4; format: cell-based; conditions: Homo sapiens, 48 h exposure
Experimental: as §1

human tumor cell lines = assay: NCI SRB cytotoxicity, all fifty nine human tumor cell lines; format: cell-based; parameters: Log10 TGI mean graph midpoint (MG_MID): unit not given here; conditions: for GI50: Homo sapiens; for cytotoxicity: against cancer cell lines, in words; for LC50: read-out: Log10 LC50 mean graph midpoint (MG_MID) (converted)
Experimental: as §1
The mean graph midpoint values of Log10 TGI and Log10 LC50 as well as Log10 GI50 for compounds 7e, 8e, 10e, 11e, 12e, 13e and 8f is listed in Table-3. […] The mean graph mid points of Log10 TGI and Log10, LC50 have shown similar pattern to the log10 GI50 mean graph mid points.

UACC-257 = assay: NCI SRB cytotoxicity, melanoma UACC-257; format: cell-based; conditions: Homo sapiens, 48 h exposure
Experimental: as §1

SK-MEL-2 = assay: NCI SRB cytotoxicity, melanoma SK-MEL-2; format: cell-based; conditions: Homo sapiens, 48 h exposure
Experimental: as §1

[3] = across fifty nine cell lines in nine cell panels, read-out: GI50 value range
[4] = against human tumor cell lines, read-out: Log10 GI50 mean graph midpoint (MG_MID) (converted)
[5] = Homo sapiens, read-out: Log10 GI50 (concentration in mol/L causing 50% growth inhibition) (converted)

## COc1ccc(C(=O)/C=C/c2cc(-c3ccc4c(c3)OCO4)n[nH]2)cc1OC [8f, (E)-3-(3-(benzo[d][1,3]dioxol-5-yl)-1H-pyrazol-5-yl)-1-(3,4-dimethoxyphenyl)prop-2-en-1-one]
IGROV1
  GI50: 2790 nM
MDA-MB-231/ATCC
  GI50: 2400 nM
KM12
  GI50: 2860 nM
OVCAR-5
  GI50: 3360 nM
HCT-116
  GI50: 2430 nM
MALME-3M
  GI50: 7320 nM
SN12C
  GI50: 3250 nM
HT29
  GI50: 2980 nM
SW-620
  GI50: 2050 nM
M14
  GI50: 6360 nM
HOP-62
  GI50: 2080 nM
786-0
  GI50: 3120 nM
OVCAR-3
  GI50: 2020 nM
HS 578T
  GI50: 2600 nM
K-562
  GI50: 2470 nM
NCI-H522
  GI50: 1820 nM
Renal; Homo sapiens
  CC50: 32400 nM
Renal
  Log10 GI50 (concentration in mol/L causing 50% growth inhibition): −5.46 mol/L
  Log10 TGI (concentration in mol/L causing total growth inhibition (0% growth)): −5.01 mol/L
NCI-H226
  GI50: 3400 nM
Prostate; Homo sapiens
  CC50: 31600 nM
Prostate
  Log10 GI50 (concentration in mol/L causing 50% growth inhibition): −5.66 mol/L
  Log10 TGI (concentration in mol/L causing total growth inhibition (0% growth)): −5.05 mol/L
MDA-MB-435 [1]
  GI50: 1800 nM
RPMI-8226
  GI50: 1030 nM
CAKI-1
  GI50: 1900 nM
COLO-205
  GI50: 3840 nM
NCI-H23
  GI50: 4120 nM
SK-MEL-5
  GI50: 6740 nM
OVCAR-8
  GI50: 2150 nM
BT-549
  GI50: 1900 nM
HCT-15
  GI50: 2810 nM
Breast; Homo sapiens
  CC50: 39800 nM
Breast
  Log10 GI50 (concentration in mol/L causing 50% growth inhibition): −4.76 mol/L
  Log10 TGI (concentration in mol/L causing total growth inhibition (0% growth)): −5.05 mol/L
HL-60(TB)
  GI50: 2820 nM
MDA-MB-435 [2]
  GI50: 3030 nM
OVCAR-4
  GI50: 2110 nM
Human tumor cell lines; [3]
  GI50: 180 to 29200 nM
Human tumor cell lines; [4]
  GI50: 2750 nM
Human tumor cell lines
  cytotoxicity: significant cytotoxicity
Human tumor cell lines; against human tumor cell lines
  Log10 TGI mean graph midpoint (MG_MID): −4.98
  LC50: 43700 nM
UACC-257
  GI50: 7060 nM
SK-MEL-2
  GI50: 6930 nM

## COc1cc(C(=O)/C=C/c2cc(-c3cc(OC)c(OC)c(OC)c3)n[nH]2)cc(OC)c1OC [10e, (E)-1-(3,4,5-trimethoxyphenyl)-3-(3-(3,4,5-trimethoxyphenyl)-1H-pyrazol-5-yl)prop-2-en-1-one]
IGROV1
  GI50: 3140 nM
MDA-MB-231/ATCC
  GI50: 1520 nM
KM12
  GI50: 1490 nM
OVCAR-5
  GI50: 1640 nM
HCT-116
  GI50: 1310 nM
MALME-3M
  GI50: 1860 nM
SN12C
  GI50: 1470 nM
HT29
  GI50: 1790 nM
SW-620
  GI50: 1590 nM
M14
  GI50: 1790 nM
HOP-62
  GI50: 1460 nM
786-0
  GI50: 1560 nM
OVCAR-3
  GI50: 1750 nM
HS 578T
  GI50: 2680 nM
K-562
  GI50: 2960 nM
NCI-H522
  GI50: 520 nM
Renal; [5]
  GI50: 1580 nM
Renal; Homo sapiens
  CC50: 7590 nM
Renal
  Log10 TGI (concentration in mol/L causing total growth inhibition (0% growth)): −5.45 mol/L
NCI-H226
  GI50: 1600 nM
Prostate; [5]
  GI50: 1480 nM
Prostate; Homo sapiens
  CC50: 7410 nM
Prostate
  Log10 TGI (concentration in mol/L causing total growth inhibition (0% growth)): −5.48 mol/L
MDA-MB-435 [1]
  GI50: 1150 nM
RPMI-8226
  GI50: 310 nM
CAKI-1
  GI50: 2580 nM
COLO-205
  GI50: 1750 nM
NCI-H23
  GI50: 3040 nM
SK-MEL-5
  GI50: 1570 nM
OVCAR-8
  GI50: 1580 nM
BT-549
  GI50: 1570 nM
HCT-15
  GI50: 1500 nM
Breast; [5]
  GI50: 1350 nM
Breast; Homo sapiens
  CC50: 10000 nM
Breast
  Log10 TGI (concentration in mol/L causing total growth inhibition (0% growth)): −5.35 mol/L
HL-60(TB)
  GI50: 1930 nM
MDA-MB-435 [2]
  GI50: 1490 nM
OVCAR-4
  GI50: 1450 nM
Human tumor cell lines; [3]
  GI50: 180 to 29200 nM
Human tumor cell lines; [4]
  GI50: 1550 nM
Human tumor cell lines
  cytotoxicity: significant cytotoxicity
Human tumor cell lines; against human tumor cell lines
  Log10 TGI mean graph midpoint (MG_MID): −5.36
  LC50: 11500 nM
UACC-257
  GI50: 1570 nM
SK-MEL-2
  GI50: 1960 nM
